Target: Glutaminyl-peptide cyclotransferase like (QPCTL) protein (Homo sapiens, UniProt Q9NXS2)
Test: Glutaminyl-peptide cyclotransferase like (QPCTL) protein inhibition assay (Gln-AMC substrate, pGAPase coupled)
Format: biochemical
Conditions: 50 mM MES pH 7.0, 10 μM ZnCl2, 0.2 U/mL pGAPase, Gln-AMC at its Km, 30° C.
Procedure: Example B-1: Glutaminyl-Peptide Cyclotransferase Like (OPCTL) Protein Inhibition Assay
Glutaminyl-peptide cyclotransferase like (QPCTL) protein activity was determined using L-glutamine-7-amido-4-methylcoumarin (Gln-AMC, Santa Cruz Biotechnology) as a substrate. A second enzyme, pyroglutamyl aminopeptidase (pGAPase, Qiagen), was included in the assay to release the AMC fluorophore following cyclization; appropriate controls were run to ensure that inhibitors were not inhibiting the auxiliary enzyme. Inhibitors were added at various concentrations to buffer (final concentrations: 50 mM MES pH 7.0, 10 μM ZnCl2, 0.2 U/mL pGAPase, Gln-AMC at its Km) and the reaction initiated by the addition of QPCTL. Reactions became linear after a 10-minute equilibration period at 30° C. (to accumulate pGlu-AMC intermediate), and were monitored for an additional 10 minutes.
Table A provides QPCTL inhibitory activity of illustrative compounds, where A means IC50 is <1 μM; B means IC50 is between 1 to 10 μM; C means IC50 is between 10 to 50 PM; D means IC50 is >50 PM.

Glutaminyl-peptide cyclotransferase like (QPCTL) protein, sequence (Q9NXS2 whole entry, species assumed): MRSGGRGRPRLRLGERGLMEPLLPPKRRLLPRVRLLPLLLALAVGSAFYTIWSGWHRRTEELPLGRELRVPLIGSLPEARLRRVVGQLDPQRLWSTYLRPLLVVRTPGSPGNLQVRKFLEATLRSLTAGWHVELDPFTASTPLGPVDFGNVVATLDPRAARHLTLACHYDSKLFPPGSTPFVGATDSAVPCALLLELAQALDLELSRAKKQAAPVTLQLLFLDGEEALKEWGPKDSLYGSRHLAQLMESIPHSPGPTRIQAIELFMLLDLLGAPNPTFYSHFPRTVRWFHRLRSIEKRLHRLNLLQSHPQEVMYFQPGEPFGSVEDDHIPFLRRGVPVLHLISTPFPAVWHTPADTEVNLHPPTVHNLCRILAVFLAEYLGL

Compound	IC50 [µM]	QPCTL IC50
Cn1c(N)nnc1C1CCN(c2nc(F)ccc2-c2ccc(F)nc2)CC1 [Compound 5, 5-(1-(6,6′-difluoro-[3,3′-bipyridin]-2-yl)piperidin-4-yl)-4-methyl-4H-1,2,4-triazol-3-amine]	< 1	
Cc1ccc(-c2ccc(F)nc2)c(N2CCC(c3nnc(N)n3C)CC2)n1 [Compound 4, 5-(1-(6′-fluoro-6-methyl-[3,3′-bipyridin]-2-yl)piperidin-4-yl)-4-methyl-4H-1,2,4-triazol-3-amine]	< 1	
1-(1-(6′-chloro-[3,3′-bipyridin]-2-yl)piperidin-4-yl)-1H-1,2,3-triazol-4-amine [Compound 3]	< 1	
Nc1nnc(C2CCN(c3ncccc3-c3ccc(F)nc3)CC2)[nH]1 [Compound 1, 5-(1-(6′-fluoro-[3,3′-bipyridin]-2-yl)piperidin-4-yl)-4H-1,2,4-triazol-3-amine]	< 1	
CNc1nnc(C2CCN(c3ncccc3-c3ccc(F)nc3)CC2)[nH]1 [Compound 7, 5-(1-(6′-fluoro-[3,3′-bipyridin]-2-yl)piperidin-4-yl)-N-methyl-4H-1,2,4-triazol-3-amine]	< 1	
Fc1ccc(CN2CC=C(c3cccn4cnnc34)CC2)cn1 [Compound 21, 8-(1-((6-fluoropyridin-3-yl)methyl)-1,2,3,6-tetrahydropyridin-4-yl)-[1,2,4]triazolo[4,3-a]pyridine]		D (D means IC50 is >50 PM)
Cn1c(N)nnc1C1CCN(c2ncccc2-c2ccc(F)nc2)CC1 [Compound 6, 5-(1-(6′-fluoro-[3,3′-bipyridin]-2-yl)piperidin-4-yl)-4-methyl-4H-1,2,4-triazol-3-amine]	< 1	
COc1ccc(C2=CCCN(CC#Cc3cccn4cnnc34)C2)cc1OC [Compound 23, 8-(3-(5-(3,4-dimethoxyphenyl)-3,6-dihydropyridin-1(2H)-yl)prop-1-yn-1-yl)-[1,2,4]triazolo[4,3-a]pyridine]		C (C means IC50 is between 10 to 50 PM)
Cc1c(N)nnn1C1CCN(c2ncccc2-c2ccc(F)nc2)CC1 [Compound 10, 1-(1-(6′-fluoro-[3,3′-bipyridin]-2-yl)piperidin-4-yl)-5-methyl-1H-1,2,3-triazol-4-amine]	< 1	
Nc1nnc(C2CCN(c3ncccc3-c3ccc(F)nc3)CC2)o1 [Compound 2, 5-(1-(6′-fluoro-[3,3′-bipyridin]-2-yl)piperidin-4-yl)-1,3,4-oxadiazol-2-amine]	< 1	
c1ccc(N2CCC(C3CCCn4cnnc43)CC2)nc1 (stereo not shown) [Compound 27, 8-(1-(pyridin-2-yl)piperidin-4-yl)-5,6,7,8-tetrahydro-[1,2,4]triazolo[4,3-a]pyridine]		C (C means IC50 is between 10 to 50 PM)

Second part, the compound after the results:

IC50 [µM]	QPCTL IC50	Compound
1 to 10		OCCn1cc(C2CN(c3ccccn3)CC=C2c2cccn3cnnc23)cn1 (stereo not shown) [Compound 26, 2-(4-(4-([1,2,4]triazolo[4,3-a]pyridin-8-yl)-3,6-dihydro-2H-[1,2′-bipyridin]-3-yl)-1H-pyrazol-1-yl)ethan-1-ol]
	C (C means IC50 is between 10 to 50 PM)	C1=C(c2cccn3cnnc23)CCN(c2ccccn2)C1 [Compound 22, 8-(3,6-dihydro-2H-[1,2′-bipyridin]-4-yl)-[1,2,4]triazolo[4,3-a]pyridine]
1 to 10		N#Cc1ccc(-c2cccnc2N2CC=C(c3cccn4cnnc34)CC2)cn1 [Compound 12, 4-([1,2,4]triazolo[4,3-a]pyridin-8-yl)-3,6-dihydro-2H-[1,2′:3′,3″-terpyridine]-6″-carbonitrile]
1 to 10		C1=C(c2cccn3cncc23)CCN(c2ccccn2)C1 [Compound 24, 8-(3,6-dihydro-2H-[1,2′-bipyridin]-4-yl)imidazo[1,5-a]pyridine]
< 1		Nc1nnc2c(C3=CCN(c4ncccc4-c4ccc(F)nc4)CC3)cccn12 [Compound 15, 8-(6″-fluoro-3,6-dihydro-2H-[1,2′:3′,3″-terpyridin]-4-yl)-[1,2,4]triazolo[4,3-a]pyridin-3-amine]
1 to 10		Fc1ccc(-c2cccnc2N2CC=C(c3cccn4cncc34)CC2)cn1 [Compound 20, 8-(6″-fluoro-3,6-dihydro-2H-[1,2′:3′,3″-terpyridin]-4-yl)imidazo[1,5-a]pyridine]
1 to 10		Nc1ccc(-c2cccnc2N2CC=C(c3cccn4cnnc34)CC2)cn1 [Compound 13, 4-([1,2,4]triazolo[4,3-a]pyridin-8-yl)-3,6-dihydro-2H-[1,2′:3′,3″-terpyridin]-6″-amine]
	C (C means IC50 is between 10 to 50 PM)	Fc1ccc(-c2cccnc2N2CC=C(c3cccn4cnnc34)CC2)cc1F [Compound 11, 8-(3′-(3,4-difluorophenyl)-3,6-dihydro-2H-[1,2′-bipyridin]-4-yl)-[1,2,4]triazolo[4,3-a]pyridine]
	C (C means IC50 is between 10 to 50 PM)	C1=C(c2cccn3cnnc23)CCN(c2ncccc2-c2cncnc2)C1 [Compound 16, 8-(3′-(pyrimidin-5-yl)-3,6-dihydro-2H-[1,2′-bipyridin]-4-yl)-[1,2,4]triazolo[4,3-a]pyridine]
1 to 10		Fc1ccc(-c2cccnc2N2CC=C(c3cccn4cnnc34)CC2)cn1 [Compound 18, 8-(6″-fluoro-3,6-dihydro-2H-[1,2′:3′,3″-terpyridin]-4-yl)-[1,2,4]triazolo[4,3-a]pyridine]
	D (D means IC50 is >50 PM)	COc1ccc(CN2CCC=C(c3cccn4cnnc34)C2)cc1OC [Compound 25, 8-(1-(3,4-dimethoxybenzyl)-1,2,5,6-tetrahydropyridin-3-yl)-[1,2,4]triazolo[4,3-a]pyridine]
1 to 10		COc1ccc(-c2cccnc2N2CC=C(c3cccn4cnnc34)CC2)cn1 [Compound 14, 8-(6″-methoxy-3,6-dihydro-2H-[1,2′:3′,3″-terpyridin]-4-yl)-[1,2,4]triazolo[4,3-a]pyridine]
1 to 10		COCCOc1ccc(-c2cccnc2N2CC=C(c3cccn4cnnc34)CC2)cn1 [Compound 19, 8-(6″-(2-methoxyethoxy)-3,6-dihydro-2H-[1,2′:3′,3″-terpyridin]-4-yl)-[1,2,4]triazolo[4,3-a]pyridine]
< 1		Nc1nnc2c(C3CCN(c4ncccc4-c4ccc(F)nc4)CC3)cccn12 [Compound 17, 8-(1-(6′-fluoro-[3,3′-bipyridin]-2-yl)piperidin-4-yl)-[1,2,4]triazolo[4,3-a]pyridin-3-amine]

Source: patent publication US20230382891A1, “GLUTAMINYL-PEPTIDE CYCLOTRANSFERASE LIKE (QPCTL) PROTEIN INHIBITORS AND USES THEREOF” (Blacksmith Medicines, Inc., priority 2020, published 2023)
